In the first assay the test system is passive sensitised guinea pig lung parenchyma strips. Briefly: Inhibition of the antigen-caused constriction of passive sensitised guinea pig lung parenchyma strips in vitro (organ bath). Particulars: Cavia porcellus, 20 min; 10 μg/ml substance; ovalbumin 0.1 μg/ml; 20 min/37°C. preincubation; read-out: % Inhibition of the constriction of passive-sensitised lung parenchyms strips (guinea pigs) induced by ovalbumin. The class given is cell-based. As for the experimental part: Inhibition of the antigen-caused construction of passive sensitised guinea pig lung parenchyma strips in vitro (organ bath)
For the in vitro investigation of the compounds according to the invention, the inhibition of the antigen-caused constriction of passive sensitised guinea pig lung parenchyma strips was measured, as described in the following:
Pirbright white guinea pigs were stunned by a blow to the nape of the neck and exsanguinated. The lungs were rinsed substantially blood-free in situ with Krebs buffer, pH 7.4. Subsequently, the lungs were removed, cut up into strips (about […]) and the strips passively sensitised for one hour at room temperature with a 1.:50 dilution of a homologous anti-ovalbumin antiserum and then washed with Krebs buffer 1 x. The antiserum had been previously produced according to DAVIES (1) in guinea pigs of the same strain by repeated injection of ovalbumin (2 x crystallised) with addition of complete Freund's adjuvant. Until its used the antiserum was stored undiluted at -18° C. Subsequently, the lung strips were individually suspended on an isometric measurement sensor in 10 ml waterbaths with an initial tension of 1.2 g. Thereafter, the baths were filled with Krebs buffer and continuously gassed at 37° C. with O2 (95%) and CO2 (5%). Via an amplifier the constrictions of the lung strips were recorded on a recorder. After 30 minutes acclimatisation phase, histamine control spasms were produced for the recognition of the reactivity of the organ pieces washed, subsequently the best substance preincubated 37° C. for 20 minutes and thereafter the ovalbumin-caused constriction initiated. The inhibition action of the compounds according to the invention was expressed as percentage reduction of the constriction amplitude of the "samples with best substance" in relation to the "untreated control constrictions".
A word on the inhibition: it is the share of the control response that was lost under treatment. As to `Cc1cc(O)ccc1N=c1snc2ccccn12` [Example 2p, 3-(4-hydroxy-2-methyl-phenylimino)-3H-[1,2,4]-thiadiazolo [4,3-a]-pyridine], the inhibition at 10 µg/mL came to 62%. As for `c1ccn2c(=NC3=NCCS3)snc2c1` [Example 2u, 3-(4,5-dihydrothiazol-2-ylimino)-3H-[1,2,4]-thia-diazolo [4,3-a]pyridine], the inhibition at 10 µg/mL was determined as 78%. For the molecule `CN(O)C(=O)Cc1ccc(N=c2snc3ccccn23)cc1` [Example 9, 4-(3H-[1,2,4]-Thiadiazole[4,3-a]-pyridin-3-ylideneamino)-phenylacetic acid N-methylhydroxamide], the inhibition at 10 µg/mL is 61%. For the molecule `c1ccn2c(=Nc3ccncc3)snc2c1` [Example 2b, 3-(4-pyridinylimino)-3H-[1,2,4]-thiadiazolo [4,3-a]-pyridine], the inhibition at 10 µg/mL is 80%. `COc1ccc(N=c2snc3ccccn23)cc1` [Example 2e, 3-(4-methoxyphenylimino)-3H-[1,2,4]-thiadiazolo-[4,3-a]pyridine]: the inhibition at 10 µg/mL was found to be 48%.

Consider `c1ccn2c(=Nc3ccc4c(c3)OCO4)snc2c1` [Example 2q, 3-(3,4-methylenedioxyphenyl-imino)-3H-[1,2,4]-thiadia-zolo [4,3-a]-pyridine], for which the inhibition at 10 µg/mL was 57%. On to `c1ccc(N=c2snc3ccccn23)nc1` [Example 2a, 3-(2-pyridinylimino)-3H-[1,2,4]-thiadiazolo [4,3-a]-pyridine], for which the inhibition at 10 µg/mL came out at 56%. For the molecule `Clc1ccc2nsc(=Nc3ccncc3)n2c1` [Example 4], the inhibition at 10 µg/mL is 61%.

Still in this assay, the particulars now being: Cavia porcellus, 20 min; 200 μg/ml substance (footnote +); ovalbumin 0.1 μg/ml; 20 min/37°C. preincubation; read-out: % Inhibition of the constriction of passive-sensitised lung parenchyms strips (guinea pigs) induced by ovalbumin.
Regarding `Cn1c(=O)c2[nH]cnc2n(C)c1=O` [aminophylline, reference compound], the inhibition at 200 µg/mL turned out to be 26%.

The record behind these values is patent US5447934A, “Anti-allergic thiadiazolo [4,3-a]pyridine derivatives” (Boehringer Mannheim GmbH, priority 1991, dated 1995).
